The assay has as its target T1, human MDM2 protein (amino acids 2-188) (Homo sapiens, UniProt Q00987).
T1 construct: human MDM2 protein (amino acids 2-188); made in house
As to the kind of experiment: p53-MDM2 TR-FRET assay, modified (p53-MDM2 Assay 2). In kind it is binding. The settings on record: 0.1 nM MDM2, 0.1 nM Europium labeled streptavidin; read-out: IC50 (nM) of p53-Hdm2 inhibition (TR-FRET) Assay 2. On the procedure:
Time Resolved Fluorescence Energy Transfer (TR-FRET) Assay
The inhibition of p53-MDM2 and p53-MDM4 interactions is measured by time resolved fluorescence energy transfer (TR-FRET). Fluorescence energy transfer (or Foerster resonance energy transfer) describes an energy transfer between donor and acceptor fluorescent molecules. For this assay, human MDM2 protein (amino acids 2-188) and human MDM4 protein (amino acids 2-185), tagged with a C-terminal biotin moiety, are used in combination with a Europium labeled streptavidin (Perkin Elmer, Inc., Waltham, Mass., USA) serving as the donor fluorophore. The p53 derived, Cy5 labeled peptide Cy5-TFSDLWKLL (p53 aa18-26) is the energy acceptor. Upon excitation of the donor molecule at 340 nm, binding interaction between MDM2 or MDM4 and the p53 peptide induces energy transfer and enhanced response at the acceptor emission wavelength at 665 nm. Disruption of the formation of the p53-MDM2 or p53-MDM4 complex due to an inhibitor molecule binding to the p53 binding site of MDM2 or MDM4 results in increased donor emission at 620 nm. The ratiometric FRET assay readout is calculated from the raw data of the two distinct fluorescence signals measured in time resolved mode (fluorescence 665 nm/fluorescence 620 nm×1000).
After addition of 1.25 nM MDM2-biotinylated or 2.5 nM MDM4-biotinylated (internal preparations), and 0.625 nM Europium labeled streptavidin (Perkin Elmer), the solution is pre-incubated for 15 minutes at room temperature, then 10 nM Cy5-p53 peptide (internal preparation) is added before an incubation at room temperature for 15 minutes prior to reading the plate. For measurement of samples, a Victor II microplate reader (Perkin Elmer) is used with the following settings: Excitation 340 nm, Emission Donor 620 nm and Emission Acceptor 665 nm. IC50 values are calculated by curve fitting using XLfit. If not specified, reagents are purchased from Sigma-Aldrich Chemie GmBH, Buchs, Switzerland.
This assay was used to evaluate compounds displaying inhibition of p53-MDM2 interaction and p53-MDM4 interaction at IC50s of 0.005 to 50 μM (p53-MDM2 Assay 1 and p53-MDM4 Assay 1, respectively). For selected compounds displaying IC50s between […] on MDM2, a slightly modified assay is used with the following adaptations: 0.1 nM MDM2, 0.1 nM Europium labeled streptavidin and Tecan genios Pro is used as a microplate reader for the fluorescence measurements (p53-MDM2 Assay 2).
T1 sequence (Q00987 2-188): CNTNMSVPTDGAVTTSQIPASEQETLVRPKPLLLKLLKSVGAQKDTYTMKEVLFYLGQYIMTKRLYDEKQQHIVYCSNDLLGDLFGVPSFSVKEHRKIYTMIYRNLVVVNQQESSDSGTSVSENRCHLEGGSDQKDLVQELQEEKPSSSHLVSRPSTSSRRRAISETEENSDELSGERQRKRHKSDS
As a reminder, the IC50 is the concentration that inhibits the measured activity by half. In the case of `COc1cc2c(cc1OC(C)C)[C@H](c1ccc(Cl)cc1)N(c1ccc(C(C)(O)[C@H]3CCCN(C)C3)cc1)C(=O)C2` (stereo partly drawn) [Example 181, (S)-1-(4-Chloro-phenyl)-2-{4-[1-hydroxy-1-((S)-1-methyl-piperidin-3-yl)-ethyl]-phenyl}-7-isopropoxy-6-methoxy-1,4-dihydro-2H-isoquinolin-3-one], the IC50 came to 5.13 nM.

Take `COc1cc2c(cc1OC(C)C)[C@H](c1ccc(Cl)cc1)N(c1ccc(C(C)(O)C3CN(C4COC4)C3)cc1)C(=O)C2` (stereo partly drawn) [Example 103, (S)-1-(4-Chloro-phenyl)-2-{4-[1-hydroxy-1-(1-oxetan-3-yl-azetidin-3-yl)-ethyl]-phenyl}-7-isopropoxy-6-methoxy-1,4-dihydro-2H-isoquinolin-3-one]: the IC50 came out at 9.18 nM.

For `COc1cc2c(cc1OC(C)C)[C@H](c1ccc(Cl)cc1)N(c1ccc(C(C)(O)C3CC4CCCC(C3)N4C(=O)CO)cc1)C(=O)C2` (stereo partly drawn) [Example 123, (S)-1-(4-Chloro-phenyl)-2-(4-{1-hydroxy-1-[9-(2-hydroxy-acetyl)-9-aza-bicyclo[3.3.1]non-3-yl]-ethyl}-phenyl)-7-isopropoxy-6-methoxy-1,4-dihydro-2H-isoquinolin-3-one], the concentration for half-maximal inhibition (IC50) was determined as 4.2 nM.

For the compound `COc1cc2c(cc1OC(C)C)[C@H](c1ccc(Cl)cc1)N(c1ccc(C(C)(O)[C@H]3CCCNC3)cc1)C(=O)C2` (stereo partly drawn) [Example 180, (S)-1-(4-Chloro-phenyl)-2-[4-((S)-1-hydroxy-1-piperidin-3-yl-ethyl)-phenyl]-7-isopropoxy-6-methoxy-1,4-dihydro-2H-isoquinolin-3-one], the IC50 is 2.25 nM.

Turning to `CCN1C2CCCC1CC(C(C)(O)c1ccc(N3C(=O)Cc4cc(OC)c(OC(C)C)cc4[C@@H]3c3ccc(Cl)cc3)cc1)C2` (stereo partly drawn) [Example 122, (S)-1-(4-Chloro-phenyl)-2-{4-[1-(9-ethyl-9-aza-bicyclo[3.3.1]non-3-yl)-1-hydroxy-ethyl]-phenyl}-7-isopropoxy-6-methoxy-1,4-dihydro-2H-isoquinolin-3-one], the half-inhibitory concentration (IC50) was determined as 2.31 nM.

Turning to `COc1cc2c(cc1OC(C)C)[C@H](c1ccc(Cl)cc1)N(c1ccc([C@](C)(O)C3CCN(C=O)CC3)cc1)C(=O)C2` (single isomer, unassigned) [Example 124], the IC50 came out at 150 nM.

In the case of `COc1cc2c(cc1OC(C)C)[C@H](c1ccc(Cl)cc1)N(c1ccc(C(C)(O)C3CC4CCCC(C3)N4C3COC3)cc1)C(=O)C2` (stereo partly drawn) [Example 120, (S)-1-(4-Chloro-phenyl)-2-{4-[1-hydroxy-1-(9-oxetan-3-yl-9-aza-bicyclo[3.3.1]non-3-yl)-ethyl]-phenyl}-7-isopropoxy-6-methoxy-1,4-dihydro-2H-isoquinolin-3-one], the IC50 amounted to 4.67 nM.

On to `COc1cc2c(cc1OC(C)C)[C@H](c1ccc(Cl)cc1)N(c1ccc([C@@](C)(O)C34CCC(CC3)C4)cc1)C(=O)C2` (single isomer, unassigned) [Example 139], for which the half-maximal inhibitory concentration (IC50) came to 2.72 nM.

For the compound `COc1cc2c(cc1OC(C)C)[C@H](c1ccc(Cl)cc1)N(c1ccc([C@@](C)(O)C3CC4CCCC(C3)S4(=O)=O)cc1)C(=O)C2` (stereo partly drawn) [Example 177, (S)-1-(4-Chloro-phenyl)-2-{4-[(S)-1-(9,9-dioxo-9-thia-bicyclo[3.3.1]non-3-yl)-1-hydroxy-ethyl]-phenyl}-7-isopropoxy-6-methoxy-1,4-dihydro-2H-isoquinolin-3-one], the IC50 amounted to 1.15 nM.

Turning to `COc1cc2c(cc1OC(C)C)[C@H](c1ccc(Cl)cc1)N(c1ccc(C(C)(O)C3CCN(C[C@@H](O)CO)CC3)cc1)C(=O)C2` (stereo partly drawn) [Example 130, (S)-1-(4-Chloro-phenyl)-2-(4-{1-[1-((R)-2,3-dihydroxy-propyl)-piperidin-4-yl]-1-hydroxy-ethyl}-phenyl)-7-isopropoxy-6-methoxy-1,4-dihydro-2H-isoquinolin-3-one], the IC50 stood at 2.08 nM.

Consider `[2H]C([2H])([2H])Oc1cc2c(cc1OC(C)C)[C@H](c1ccc(Cl)cc1)N(c1ccc(C(C)(O)C3CCN(C=O)CC3)cc1)C(=O)C2` (stereo partly drawn) [Example 151, 4-(1-{4-[(S)-1-(4-Chloro-phenyl)-7-isopropoxy-6-d^3-methoxy-3-oxo-3,4-dihydro-1H-isoquinolin-2-yl]-phenyl}-1-hydroxy-ethyl)-piperidine-1-carbaldehyde], for which the IC50 was 2.09 nM.

Consider `[2H]C([2H])([2H])Oc1cc2c(cc1OC(C)C)[C@H](c1ccc(Cl)cc1)N(c1ccc([C@](C)(O)C3CCS(=O)(=O)CC3)cc1)C(=O)C2` (single isomer, unassigned) [Example 152], for which the IC50 worked out at 152 nM.

For the compound `COc1cc2c(cc1OC(C)C)[C@H](c1ccc(Cl)cc1)N(c1ccc(C(C)(O)[C@H]3CCCN(C4COC4)C3)cc1)C(=O)C2` (stereo partly drawn) [Example 183, (S)-1-(4-Chloro-phenyl)-2-{4-[1-hydroxy-1-((S)-1-oxetan-3-yl-piperidin-3-yl)-ethyl]-phenyl}-7-isopropoxy-6-methoxy-1,4-dihydro-2H-isoquinolin-3-one], the IC50 was 8.78 nM.

For `COc1cc2c(cc1OC(C)C)[C@H](c1ccc(Cl)cc1)N(c1ccc(C(C)(O)[C@H]3CCCN(C(=O)OC(C)(C)C)C3)cc1)C(=O)C2` (stereo partly drawn) [Example 179, (S)-3-(1-{4-[(S)-1-(4-Chloro-phenyl)-7-isopropoxy-6-methoxy-3-oxo-3,4-dihydro-1H-isoquinolin-2-yl]-phenyl}-1-hydroxy-ethyl)-piperidine-1-carboxylic acid tert-butyl ester], the IC50 worked out at 1.28 nM.

Turning to `[2H]C([2H])([2H])Oc1cc2c(cc1OC(C)C)[C@H](c1ccc(Cl)cc1)N(c1ccc([C@@](C)(O)C3CCS(=O)(=O)CC3)cc1)C(=O)C2` (single isomer, unassigned) [Example 153], the 50% inhibitory concentration (IC50) worked out at 3.16 nM.

`COc1cc2c(cc1OC(C)C)[C@H](c1ccc(Cl)cc1)N(c1ccc([C@@](C)(O)C3CCN(C(=O)COC(C)=O)CC3)cc1)C(=O)C2` (single isomer, unassigned) [Example 128]: the half-maximal inhibitory concentration (IC50) was found to be 1.34 nM.

Regarding `COc1cc2c(cc1OC(C)C)[C@H](c1ccc(Cl)cc1)N(c1ccc([C@](C)(O)C3CC(C)(C)OC(C)(C)C3)cc1)C(=O)C2` (single isomer, unassigned) [Example 164], the IC50 amounted to 509 nM.

As to `COc1cc2c(cc1OC(C)C)[C@H](c1ccc(Cl)cc1)N(c1ccc([C@](C)(O)C3CC4CCC(C3)O4)cc1)C(=O)C2` (single isomer, unassigned) [Example 160], the 50% inhibitory concentration (IC50) amounted to 41.9 nM.

With `COc1cc2c(cc1OC(C)C)[C@H](c1ccc(Cl)cc1)N(c1ccc([C@](C)(O)C3CCN(C(=O)COC(C)=O)CC3)cc1)C(=O)C2` (single isomer, unassigned) [Example 129], the half-inhibitory concentration (IC50) was determined as 99.8 nM.

With `[2H]C([2H])([2H])Oc1cc2c(cc1OC(C)C)[C@H](c1ccc(Cl)cc1)N(c1ccc([C@@](C)(O)C3CCN(C=O)CC3)cc1)C(=O)C2` (single isomer, unassigned) [Example 155], the half-inhibitory concentration (IC50) turned out to be 1.23 nM.

Take `CNC(=O)N1C2CCCC1CC(C(C)(O)c1ccc(N3C(=O)Cc4cc(OC)c(OC(C)C)cc4[C@@H]3c3ccc(Cl)cc3)cc1)C2` (stereo partly drawn) [Example 119, 3-(1-{4-[(S)-1-(4-Chloro-phenyl)-7-isopropoxy-6-methoxy-3-oxo-3,4-dihydro-1H-isoquinolin-2-yl]-phenyl}-1-hydroxy-ethyl)-9-aza-bicyclo[3.3.1]nonane-9-carboxylic acid methylamide]: the half-inhibitory concentration (IC50) turned out to be 1.47 nM.

With `COc1cc2c(cc1OC(C)C)[C@H](c1ccc(Cl)cc1)N(c1ccc(C(C)(O)C34CCC(CC3)OC4)cc1)C(=O)C2` (stereo partly drawn) [Example 178, (S)-1-(4-Chloro-phenyl)-2-{4-[1-hydroxy-1-(2-oxa-bicyclo[2.2.2]oct-4-yl)-ethyl]-phenyl}-7-isopropoxy-6-methoxy-1,4-dihydro-2H-isoquinolin-3-one], the concentration for half-maximal inhibition (IC50) was 1.59 nM.

For `COc1cc2c(cc1OC(C)C)[C@H](c1ccc(Cl)cc1)N(c1ccc([C@](C)(O)C3CCN(CCO)CC3)cc1)C(=O)C2` (single isomer, unassigned) [Example 132], the half-maximal inhibitory concentration (IC50) was determined as 25.3 nM.

In the case of `COc1cc2c(cc1OC(C)C)[C@H](c1ccc(Cl)cc1)N(c1ccc([C@@](C)(O)C3CCN(C(=O)CO)CC3)cc1)C(=O)C2` (single isomer, unassigned) [Example 133], the IC50 is 1.62 nM.

`COc1cc2c(cc1OC(C)C)[C@H](c1ccc(Cl)cc1)N(c1ccc([C@](C)(O)C3CCN(C4COC4)CC3)cc1)C(=O)C2` (single isomer, unassigned) [Example 126]: the 50% inhibitory concentration (IC50) worked out at 58.6 nM.

Source of the values: patent US8859535B2, “Hydroxy substituted isoquinolinone derivatives” (Novartis AG, priority 2011, dated 2014).
